The values that follow come from patent US20070191349A1, “C8, c8' linked 5-oxo-1,2,3,11a-tetrahydro-5h-pyrrolo[2,1-c][1,4] benzodiazepine dimers with 1h-pyrrole-dicarboxylic acid amide linkers and oligomeric analogs therof as well as related compounds for the treatment of proliferative diseases” (SPIROGEN LIMITED, priority 2004, published 2007).

In general, GI50 refers to the concentration that inhibits growth by half. The low end stands for greater sensitivity of the cells, the high end for lower sensitivity of the cells. Broadly, the IC50 is the midpoint of a concentration-inhibition curve. Read a high IC50 as weaker potency.

Read-outs that look alike come from different tables or passages of the source. Where only a bound is given, the exact number is not on record here.

The subject of assay [1] is approximately 60 human tumour cell lines. Description: NCI60 cell screen, in vitro cytotoxicity, SRB assay. Conditions: NCI 60 human tumour cell lines, 48 h continuous exposure. It counts as cell-based. Here is the method:
The National Cancer Institute (NCI), Bethesda, Md., USA has available an in vitro cytotoxicity screen which consists of approximately 60 human tumour cell lines against which compounds are tested at a minimum of five concentrations each differing 10-fold. A 48 h continuous exposure protocol is used, where cell viability or growth is estimated with an SRB protein assay.
The test compounds were evaluated against approximately 60 human tumour cell lines. The NCI screening procedures were described in detail by Monks and co-workers (Monks, A et al., Journal of the National Cancer Institute, 1991, 83, 757). Briefly, cell suspensions were diluted according to the particular cell type and the expected target cell density (5000-40,000 cells per well based on cell growth characteristics), and added by pipette (100 μL) into 96-well microtitre plates. The cells were allowed a preincubation period of 24 h at 37° C. for stabilisation. Dilutions at twice the intended test concentration were added at time zero in 100 μL aliquots to the wells. The test compounds were evaluated at five 10-fold dilutions (10^−4, 10^−5, 10^−6, 10^−7 and 10^−[…]). The test compounds were incubated for 48 h in 5% CO2 atmosphere and 100% humidity. The cells were then assayed using the sulphorhodamine B assay. A plate reader was used to read the optical densities and a microcomputer processed the readings into GI50 values (in Moles), which is the dosage required to limit cell growth to 50%.

Assay [2] has as its system linear pBR322 DNA. The experiment in a line: DNA cross-linking, electrophoretic assay (Hartley et al.). Format: biochemical. Conditions: 2 h at 37° C., pH 7.2. The method, then:
The extent of DNA cross-linking induced by each PBD dimer was determined using the electrophoretic assay method of Hartley, et al. (Hartley, J. A., Berardini, M. D., and Souhami, R. L. (1991) Anal. Biochem. 193, 131-134) based on the principle that, following complete denaturation of linear pBR322 DNA (˜4,300 bp) to the single-stranded (SS) form, an interstrand cross-link results in renaturation to double-stranded (DS) in a neutral gel.
Closed-circular DNA was linearized with HindIII, then dephosphorylated and finally 5′-singly end-labelled using [γ^32P]-ATP and polynucleotide kinase. Reactions containing 30-40 ng of DNA and the test compound were carried out in aqueous TEOA (25 mM triethanolamine, 1 mM EDTA, pH 7.2) buffer at 37° C. in a final volume of 50 μl for 2 h. Reactions were terminated by addition of an equal volume of stop solution (0.6 M NaOAc, 20 mM EDTA, 100 μg/ml tRNA) followed by precipitation with ethanol. Following centrifugation, the supernatant was discarded and the pellet dried by lyophilization. […] Control non-denatured samples were re-suspended in 10 μl of non-denaturing buffer solution (0.6% sucrose, 0.04% bromophenol blue in aqueous TAE buffer [40 mM Tris, 20 mM acetic acid, 2 mM EDTA, pH 8.1]) and loaded directly onto the gel for comparison.
Electrophoresis was carried out for 14-16 h at 40 V using a 0.8% submerged agarose gel (20×25×0.5 cm) in TAE buffer. Gels were dried under vacuum for 2 h at 80° C. onto one layer each of Whatman 3MM and DE8I filter papers using a BioRad 583 gel dryer. Autoradiographs were obtained after exposure of Hyperfilm-MP film (Amersham plc, U.K.) to the dried gel for either 4 h with a screen (or over night, without a screen, to obtain a sharper image). Film bands were quantitated using a BioRad GS-670 imaging laser densitometer. Percentage cross-linking was calculated by measuring the total DNA in each lane (summed density for the double-stranded [DS] and single-stranded [SS] bands) relative to the amount of cross-linked DNA (density of DS band alone). A dose-response curve was derived by plotting drug concentration against the determined percentage level of cross-linked DNA which was then analysed to determine the concentration of test compound that results in 50% cross-linked plasmid DNA (XL50).

Assay [3] relates to K562 human chronic myeloid leukaemia cells. The experiment in a line: In vitro cytotoxicity, K562 cells, MTT assay. Conditions: 1 h drug exposure, MTT after 4 days. Format: cell-based. Here is the method: K562 human chronic myeloid leukaemia cells were maintained in RPM1 1640 medium supplemented with 10% fetal calf serum and 2 mM glutamine at 37° C. in a humidified atmosphere containing 5% CO2 and were incubated with a specified dose of drug for 1 h at 37° C. in the dark. The incubation was terminated by centrifugation (5 min, 300 g) and the cells were washed once with drug-free medium. Following the appropriate drug treatment, the cells were transferred to 96-well microtiter plates (10^4 cells per well, 8 wells per sample). Plates were then kept in the dark at 37° C. in a humidified atmosphere containing 5% CO2. The assay is based on the ability of viable cells to reduce a yellow soluble tetrazolium salt, 3-(4,5-dimethylthiazol-2-yl)-2,5-diphenyl-2H-tetrazolium bromide (MTT, Aldrich-Sigma), to an insoluble purple formazan precipitate. Following incubation of the plates for 4 days (to allow control cells to increase in number by approximately 10 fold), 20 μL of MTT solution (5 mg/mL in phosphate-buffered saline) was added to each well and the plates further incubated for 5 h. The plates were then centrifuged for 5 min at 300 g and the bulk of the medium pipetted from the cell pellet leaving 10-20 μL per well. DMSO (200 μL) was added to each well and the samples agitated to ensure complete mixing. The optical density was then read at a wavelength of 550 nm on a Titertek Multiscan ELISA plate reader, and a dose-response curve was constructed. For each curve, an IC50 value was read as the dose required to reduce the final optical density to 50% of the control value.

[4] abbreviates: Alkali, read-out: XL50 (concentration that results in 50% cross-linked plasmid DNA), Alkali.
[5] abbreviates: Heat, read-out: XL50 (concentration that results in 50% cross-linked plasmid DNA), Heat.

Compound `COc1cc2c(cc1NC(=O)c1ccc(C(=O)Nc3cc4c(cc3OC)C(=O)N3CCC[C@H]3C=N4)n1C)N=C[C@@H]1CCCN1C2=O` [(1) SJG-605, 1-Methyl-1H-pyrrole-2,5-dicarboxylic acid bis-[(11aS)(7-methoxy-5-oxo-1,2,3,11a-tetrahydro-5H-pyrrolo[2,1-c][1,4]benzodiazepin-8-yl)-amide]] showed a GI50 in assay [1] of 1000 nM. For the same compound, in assay [2] (setting [4]), the EC50 came to 1300 nM. The compound further showed an IC50 in assay [3] of 1200 nM.

`COc1cc2c(cc1NC(=O)c1cc(C(=O)Nc3cc4c(cc3OC)C(=O)N3CCC[C@H]3C=N4)n(C)c1)N=C[C@@H]1CCCN1C2=O` [(2) SJG-604, 1-Methyl-1H-pyrrole-2,4-dicarboxylic acid bis-[(11aS)(7-methoxy-5-oxo-1,2,3,11a-tetrahydro-5H-pyrrolo[2,1-c][1,4]benzodiazepin-8-yl)-amide]] displayed a GI50 in assay [1] of 31600 nM. In addition, the EC50 in assay [2] (setting [4]) amounted to 3500 nM. The IC50 in assay [3] is 23000 nM.

For `COc1cc2c(cc1OCCCNC(=O)c1ccc(C(=O)NCCCOc3cc4c(cc3OC)C(=O)N3CCC[C@H]3C=N4)n1C)N=C[C@@H]1CCCN1C2=O` [(13) AT-217], it took 19000 nM to inhibit growth in assay [1] by half (GI50). Besides, the EC50 is 350 nM in assay [2] (setting [4]) and 3800 nM in assay [2] (setting [5]).

On to `COc1cc2c(cc1OCCCC(=O)Nc1cc(C(=O)NCCCNC(=O)c3cc(NC(=O)CCCOc4cc5c(cc4OC)C(=O)N4CCC[C@H]4C=N5)cn3C)n(C)c1)N=C[C@@H]1CCCN1C2=O` [(15) AT-281], for which, in assay [1], the GI50 came out at 10 nM. In assay [3], this compound showed an IC50 of 340 nM.

As to `COc1cc2c(cc1OCCCNC(=O)c1cc(NC(=O)c3cc(NC(=O)c4cc(NC(=O)CCCOc5cc6c(cc5OC)C(=O)N5CCC[C@H]5C=N6)cn4C)cn3C)cn1C)N=C[C@@H]1CCCN1C2=O` [(18) AT-235], in assay [1], it took 10 nM to inhibit growth by half (GI50). The EC50 in assay [2] (setting [4]) was less than 100 nM; in assay [2] (setting [5]) it was 230 nM. In assay [3], this compound yielded an IC50 of 1510 nM.
